According to patent US10526388B2, “Peptide derived from GPC3, pharmaceutical composition for treatment or prevention of cancer using the same, immunity inducer, and method for producing antigen-presenting cells” (CYTLIMIC INC., priority 2015, dated 2020):
Ends that are not written are not given here.

What was measured:
CD8T cells = experiment: Immunity induction test of peptide (peptide-stimulated dendritic cells cocultured with CD8T cells, IFN-γ ELISPOT / ELISA); assay type: cell-based, human
Method: (1) Preparation of Peptide-stimulated Dendritic Cell
Of peripheral blood monocytes obtained by pheresis from the patient treated with HSP70 dendritic cell therapy, a cell fraction adhering to the culture flask was cultured in AIM-CM medium (trade name “Gibco” from Thermo Fisher Scientific Co., Ltd.) at 37° C. for 10 days. During culture, 15 μl of IL-4 and 30 μl of granulocyte-monocyte colony-stimulating factor (GM-CSF) were added to the medium at day 0 and day 3, and 15 μl of IL-4, 30 μl of GM-CSF, and 75 μl of tumor necrosis factor (TNF)-α were added at day 5.
The dendritic cells induced were newly recovered into AIM-CM medium, and the peptides of the present invention (SEQ ID NOS: 1 to 11) were each added to 20 μg/ml. […]
The dendritic cells were recovered, washed 3 times or more with a sufficient amount of AIM-CM medium, and counted. […]
Using CD8 Negative Selection Kit (from Miltenyi Biotec), CD8T cells were separated from the medium and counted. […]
A culture supernatant at day 7 after coculture of T cells with dendritic cells pulsed with each of the above peptides was diluted to the 4 levels of ×1, ×5, ×25, and ×125 to identify the dilution level falling within the limit of measurement using Human IFN-γ ELISA MAX Deluxe Set (from BioLegend Inc.). Thereafter, each sample was measured 3 times at the identified dilution level. […]

HLA-A*24:02 molecule = HLA-A*24:02 molecule (Homo sapiens, UniProt P04439, D101N/D140Y/D185E/E176V/E190D/F33S/G103R/G107R/I119L/I121M/I306V/K335N/L105A/L180Q/L300P/N151K/N90K/Q86E/Q94H/R106L/R138H/R89G/T104I/T345S/V100E/W191G/Y123F); experiment: Binding experiment of peptide to HLA-A*24:02 molecule (C1R-A24 cells, antibody 17A12, FACScan); details: for Kd: C1R-A24 cells, on ice 4 hours, negative figures given (log of Kd value)
Method: The binding capacity of each peptide to the HLA-A*24:02 molecule as the product of HLA-A*24:02 gene was measured using C1R-A24 cells expressing the HLA-A*24:02 molecule (the cells prepared by Prof. Masafumi Takeguchi, Kumamoto University were gifted by Assoc. Prof. Masaki Yasukawa, Ehime University with permission).
First, C1R-A24 cells were exposed to acidic conditions of pH 3.3 for 30 seconds to dissociate and remove endogenous peptides which were originally bound to the HLA-A*24:02 molecule and a light chain, […], which was commonly associated with HLA class I molecules. After neutralization, purified β2m was added to the C1R-A24 cells, which was then added to peptide dilution series. The mixtures were each then incubated on ice for 4 hours. The 3-molecule assembly (MHC-pep) consisting of the HLA-A*24:02 molecule, the peptide, and β2 m which had been reasociated during the incubation was stained with a fluorescent labeled monoclonal antibody, 17A12, recognizing the assembly.
Subsequently, the number of MHC-pep's per C1R-A24 cell (which is proportional to the fluorescent intensity of the above fluorescent antibody) was quantitatively measured using a fluorescent cell analyzer, FACScan (Becton, Dickinson and Company). The binding dissociation constant, Kd value, between the HLA-A*24:02 molecule and the peptide was calculated from the average fluorescent intensity per cell using a method as published in a paper (Udaka et al., Immunogenetics, 51, 816-828, 2000) by the present inventor.

HLA-A*02:06 molecule = target: T1, HLA-A*02:06 molecule (Homo sapiens, UniProt P04439, D140Y/D185E/D98H/E176V/E277Q/F33Y/G131W/G231S/I119V/I121R/I166T/I218V/L300P/L318F/N151K/N90K/P208A/P217A/Q86G/Q94H/R138H/R169H/T345S); experiment: Binding experiment of peptide to HLA-A*02:06 molecule (RA2.6 cells, antibody BB7.2, flow cytometer); details: for Kd: RA2.6 cells, 26° C. 60 minutes then 35° C. 4 hours, negative figures given (log of Kd value)
T1 construct: expressed in transfected cells; host or cells: RA2.6 cells (RMAS mouse TAP-deficient line carrying HLA-A*02:06 cDNA; prepared at Kochi University)
Method: The binding capacity of each peptide to the HLA-A*02:06 molecule as the product of HLA-A*02:06 gene was measured using RA2.6 cells (a cell line newly prepared at Kochi University) in which cDNA of the HLA-A*02:06 gene was introduced into RMAS as a mouse TAP (transporter associated with antigen processing)-deficient cell line.
First, the RA2.6 cells were cultured overnight at 26° C. to accumulate the HLA-A*02:06 molecules unbound to the peptide on the cell surface. Any of peptide dilution series was added thereto for binding at 26° C. for 60 minutes.
Subsequently, the mixture was cultured at 35° C. for 4 hours, resulting in the denaturation of the empty HLA-A*02:06 molecule unbound to the peptide and the loss of its steric structure. A fluorescent labeled monoclonal antibody, BB7.2, specifically recognizing a peptide-bound HLA-A*02:06 molecule, was added thereto, which was then incubated on ice for 20 minutes to stain the cells.
(§1) Thereafter, the amount of fluorescence per cell was measured using a flow cytometer, and the dissociation constant, Kd value, was calculated using a method as published in a paper by the present inventor (Udaka et al., Immunogenetics, 51, 816-828, 2000).

HLA-A*02:01 molecule = HLA-A*02:01 molecule (Homo sapiens, UniProt P04439, D140Y/D185E/D98H/E176V/E277Q/G131W/G231S/I119V/I121R/I166T/I218V/L300P/L318F/N151K/N90K/P208A/P217A/Q86G/Q94H/R138H/R169H/T345S); experiment: Binding experiment of peptide to HLA-A*02:01 molecule (T2 cells, antibody BB7.2, flow cytometer); details: for Kd: T2 cells, 37° C. 4 hours, negative figures given (log of Kd value)
Method: The binding capacity of each peptide to the HLA-A*02:01 molecule as the product of HLA-A*02:01 gene was measured using a cell line, T2, (purchased from ATCC) expressing the HLA-A*02:01 molecule.
T2 cells and purified β2m were added to stepwise dilution series of a peptide whose binding capacity was to be measured, which was then incubated at 37° C. for 4 hours.
as §1

Row | Sequence | immunogenicity (in words) (CD8T cells) | binding to HLA-A*24:02 molecule (in words) (HLA-A*24:02 molecule) | Kd (HLA-A*24:02 molecule) [µM] | binding to HLA-A*02:06 molecule (in words) (HLA-A*02:06 molecule) | Kd (HLA-A*02:06 molecule) [µM] | binding to HLA-A*02:01 molecule (in words) (HLA-A*02:01 molecule) | Kd (HLA-A*02:01 molecule) [µM]
1 | ALNLGIEVI [SEQ ID NO: 7, ALNLGIEVI] | high immunogenicity | strongly binds | 111 | strongly binds | 69 | strongly binds | 1.21
2 | ARLNMEQLL [SEQ ID NO: 11, ARLNMEQLL] |  |  | 6.26 |  | 1720 |  | 144
3 | GMIKVKNQL [SEQ ID NO: 10, GMIKVKNQL] |  |  | 0.125 |  | 439 |  | 17.5
4 | GYICSHSPV [SEQ ID NO: 6, GYICSHSPV] |  |  | 0.283 |  | > 1000 |  | > 1000
5 | KLTTTIGKL [SEQ ID NO: 9, KLTTTIGKL] |  |  | 6.14 |  | 9.25 |  | 10.7
6 | LFDSLFPVI [SEQ ID NO: 2, LFDSLFPVI] |  |  | 0.0374 |  | > 1000 |  | 8.61
7 | LLQSASMEL [SEQ ID NO: 8, LLQSASMEL] |  |  | 3.25 |  | 1.33 |  | 0.73
8 | MVNELFDSL [SEQ ID NO: 1, MVNELFDSL] |  |  | 20 |  | 0.724 |  | 4.94
9 | SALDINECL [SEQ ID NO: 3, SALDINECL] |  |  | > 1000 |  | 0.483 |  | > 1000
10 | SLQVTRIFL [SEQ ID NO: 4, SLQVTRIFL] |  |  | 4.61 |  | 6.11 |  | 0.616
11 | SLTPQAFEF [SEQ ID NO: 5, SLTPQAFEF] |  |  | 0.077 |  | 30.5 |  | 11.9
